Data reported in ChEMBL document CHEMBL1201862, “PubChem BioAssay data set” (2004).
Calls of active or inactive are those of the source. Rule as the data show it: actives have a measured IC50 and inactives only a lower limit.

Target: Envelope glycoprotein gp160 (Human immunodeficiency virus 1, UniProt Q6QLK5)
Assay: cell-free HIV fusion peptide-binding blockers – biochemical, uHTS, fluorescence dequenching, […] (AID 1986)

Sequence of Envelope glycoprotein gp160 (Q6QLK5 whole entry, the tested form may be a part): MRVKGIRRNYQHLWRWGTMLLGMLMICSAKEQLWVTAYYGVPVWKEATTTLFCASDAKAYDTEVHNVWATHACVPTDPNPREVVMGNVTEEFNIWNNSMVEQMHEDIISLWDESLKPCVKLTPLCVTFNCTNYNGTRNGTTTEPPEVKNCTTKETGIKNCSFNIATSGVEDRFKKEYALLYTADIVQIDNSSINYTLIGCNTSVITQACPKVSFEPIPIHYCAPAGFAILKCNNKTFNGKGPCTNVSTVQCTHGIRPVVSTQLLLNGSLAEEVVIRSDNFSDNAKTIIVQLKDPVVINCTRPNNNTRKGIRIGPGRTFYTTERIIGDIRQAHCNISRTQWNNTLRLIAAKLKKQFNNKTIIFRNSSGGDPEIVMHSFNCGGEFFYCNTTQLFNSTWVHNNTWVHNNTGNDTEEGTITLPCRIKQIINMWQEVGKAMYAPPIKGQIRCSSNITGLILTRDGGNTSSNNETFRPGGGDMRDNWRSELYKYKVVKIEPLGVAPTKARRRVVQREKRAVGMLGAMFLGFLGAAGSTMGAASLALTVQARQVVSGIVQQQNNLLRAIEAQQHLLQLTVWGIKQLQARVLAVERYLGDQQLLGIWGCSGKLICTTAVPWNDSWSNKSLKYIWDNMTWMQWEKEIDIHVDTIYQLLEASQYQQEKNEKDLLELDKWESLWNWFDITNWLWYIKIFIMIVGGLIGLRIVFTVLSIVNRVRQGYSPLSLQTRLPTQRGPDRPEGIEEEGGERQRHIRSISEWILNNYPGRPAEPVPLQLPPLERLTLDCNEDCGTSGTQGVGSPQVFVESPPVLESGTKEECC

**Q.** COc1ccc(-c2csc(NC(=O)c3ccccc3NS(=O)(=O)c3ccc(C)cc3)n2)cc1 was tested. Which IC50 did it give?
**A.** 12.4 µM (active)

**Q.** For CCCCCNC(=O)c1ccc2c(=O)[nH]c3c(C(=O)NCC4CCCO4)sc(=S)n3c2c1 (stereo not drawn), which IC50 is on record?
**A.** 20 µM (active)

**Q.** For CC(C)(C)c1ccc2c(c1)OC(C(=O)N/N=C\c1ccc(-c3cccc(C(=O)O)c3)o1)CO2 (stereo not drawn), which IC50 is on record?
**A.** 14.1 µM (active)
